Measured values reported in ChEMBL document CHEMBL1126307, “Conformational studies of muscarone analogues: X-ray analysis and molecular mechanics calculations” (J Med Chem, 1992).

Key:
Format in all cases: functional
Cavia porcellus [1] = species on record: Cavia porcellus; experiment: Muscarinic potency was measured in guinea pig ileum; conditions: for EC50: Cavia porcellus, Ileum
Rattus norvegicus [2] = species on record: Rattus norvegicus; experiment: Muscarinic potency was measured in rat bladder; conditions: for EC50: Rattus norvegicus
Rattus norvegicus [3] = species on record: Rattus norvegicus; experiment: Muscarinic potency was measured in rat jejunum; conditions: for EC50: Rattus norvegicus, Jejunum
Cavia porcellus [4] = species on record: Cavia porcellus; experiment: Muscarinic potency was measured in guinea pig atria; conditions: for EC50: Cavia porcellus
[5] = Eudismic ratio was measured

Structure (SMILES): C[C@@H]1O[C@H](C[N+](C)(C)C)CC1=O [listing 1 of 2 here]
- -Log EC50 (Cavia porcellus [1]): 9
- -Log EC50 (Rattus norvegicus [2]): 7.28
- -Log EC50 (Rattus norvegicus [3]): 7.89
- -Log EC50 (Cavia porcellus [4]): 8.62

Structure (SMILES): C[C@H]1OC[C@@H](C[N+](C)(C)C)O1 [listing 1 of 2 here]
- EC50 (Cavia porcellus [1]): 4.17 nM
- EC50 (Rattus norvegicus [2]): 123 nM
- EC50 (Rattus norvegicus [3]): 26.3 nM
- EC50 (Cavia porcellus [4]): 9.55 nM

Structure (SMILES): C[C@H]1CC[C@@H](C[N+](C)(C)C)O1
- EC50 (Cavia porcellus [1]): 135 nM
- EC50 (Rattus norvegicus [2]): 2400 nM
- EC50 (Rattus norvegicus [3]): 646 nM
- EC50 (Cavia porcellus [4]): 1320 nM

Structure (SMILES): C[C@@H]1O[C@H](C[N+](C)(C)C)CS1 [listing 1 of 2 here]
- EC50 (Cavia porcellus [1]): 5.89 nM
- EC50 (Rattus norvegicus [2]): 229 nM
- EC50 (Rattus norvegicus [3]): 28.2 nM
- EC50 (Cavia porcellus [4]): 42.7 nM

Structure (SMILES): C=C1C[C@@H](C[N+](C)(C)C)O[C@H]1C
- -Log EC50 (Cavia porcellus [1]): 7.38
- -Log EC50 (Rattus norvegicus [2]): 6.13
- -Log EC50 (Rattus norvegicus [3]): 6.78
- -Log EC50 (Cavia porcellus [4]): 6.1

Structure (SMILES): C[C@@H]1O[C@H](C[N+](C)(C)C)CC1=O [listing 2 of 2 here]
- ER [5]: 3.1

Structure (SMILES): C[C@@H]1O[C@H](C[N+](C)(C)C)CS1 [listing 2 of 2 here]
- ER [5]: 170

Structure (SMILES): C[C@H]1OC[C@@H](C[N+](C)(C)C)O1 [listing 2 of 2 here]
- ER [5]: 59

Structure (SMILES): C[C@@H]1O[C@H](C[N+](C)(C)C)CC1O (mixture of isomers)
- EC50 (Cavia porcellus [1]): 31.6 nM
- EC50 (Rattus norvegicus [2]): 575 nM
- EC50 (Rattus norvegicus [3]): 155 nM
- ER [5]: 331
- EC50 (Cavia porcellus [4]): 58.9 nM

Structure (SMILES): C[C@@H]1O[C@H](C[N+](C)(C)C)CS1 (mixture of isomers) [listing 1 of 2 here]
- -Log EC50 (Cavia porcellus [1]): 8.23
- -Log EC50 (Rattus norvegicus [2]): 6.64
- -Log EC50 (Rattus norvegicus [3]): 7.55
- -Log EC50 (Cavia porcellus [4]): 7.37

Structure (SMILES): C[C@@H]1O[C@H](C[N+](C)(C)C)CS1 (mixture of isomers) [listing 2 of 2 here]
- ER [5]: 170

Structure (SMILES): C[C@@H]1O[C@H](C[N+](C)(C)C)CC1=O (racemic) [listing 1 of 2 here]
- EC50 (Cavia porcellus [1]): 1 nM
- EC50 (Rattus norvegicus [3]): 12.9 nM
- EC50 (Cavia porcellus [4]): 2.4 nM

Structure (SMILES): C[C@H]1OC[C@@H](C[N+](C)(C)C)O1 (racemic) [listing 1 of 2 here]
- -Log EC50 (Cavia porcellus [1]): 8.38
- -Log EC50 (Rattus norvegicus [2]): 6.91
- -Log EC50 (Rattus norvegicus [3]): 7.58
- -Log EC50 (Cavia porcellus [4]): 8.02

Structure (SMILES): C[C@H]1CC[C@@H](C[N+](C)(C)C)O1 (racemic)
- -Log EC50 (Cavia porcellus [1]): 6.87
- -Log EC50 (Rattus norvegicus [2]): 5.62
- -Log EC50 (Rattus norvegicus [3]): 6.19
- -Log EC50 (Cavia porcellus [4]): 5.88

Structure (SMILES): CN1OC(C[N+](C)(C)C)CC1=O (racemic) [listing 1 of 2 here]
- -Log EC50 (Cavia porcellus [1]): 7.95
- -Log EC50 (Rattus norvegicus [2]): 6.44
- -Log EC50 (Rattus norvegicus [3]): 7.13
- -Log EC50 (Cavia porcellus [4]): 7.62

Structure (SMILES): C=C1C[C@@H](C[N+](C)(C)C)O[C@H]1C (racemic)
- EC50 (Cavia porcellus [1]): 41.7 nM
- EC50 (Rattus norvegicus [2]): 741 nM
- EC50 (Rattus norvegicus [3]): 166 nM
- EC50 (Cavia porcellus [4]): 794 nM

Structure (SMILES): CN1OC(C[N+](C)(C)C)CC1=O (racemic) [listing 2 of 2 here]
- ER [5]: 2.5

Structure (SMILES): C[C@@H]1O[C@H](C[N+](C)(C)C)CC1=O (racemic) [listing 2 of 2 here]
- ER [5]: 3.1

Structure (SMILES): C[C@H]1OC[C@@H](C[N+](C)(C)C)O1 (racemic) [listing 2 of 2 here]
- ER [5]: 59

Structure (SMILES): CN1OC(C[N+](C)(C)C)CC1=O (stereo in doubt; 4) [listing 1 of 2 here]
- EC50 (Cavia porcellus [1]): 11.2 nM
- EC50 (Rattus norvegicus [2]): 363 nM
- EC50 (Rattus norvegicus [3]): 74.1 nM
- EC50 (Cavia porcellus [4]): 24 nM

Structure (SMILES): CN1OC(C[N+](C)(C)C)CC1=O (stereo in doubt; 4) [listing 2 of 2 here]
- ER [5]: 2.5

Structure (SMILES): C[C@@H]1O[C@H](C[N+](C)(C)C)C[C@H]1O [MUSCARINE]
- EC50 (Cavia porcellus [1]): 31.6 nM
- EC50 (Rattus norvegicus [2]): 575 nM
- EC50 (Rattus norvegicus [3]): 155 nM
- ER [5]: 331
- EC50 (Cavia porcellus [4]): 58.9 nM
